What was measured:
[1] = tested on: Peripheral blood mononuclear cells; test: Mixed lymphocyte reaction (MLR) test; format: cell-based, human; details: Homo sapiens, PBMC; Table 1; 50% suppression of the MLR
Description: (§1) Pteridine derivatives were first dissolved (10 mM) in dimethylsulfoxide (hereinafter referred as DMSO) and further diluted in culture medium before use for the following in vitro experiments. The commercially available culture medium consisted of RPMI-1640+10% foetal calf serum (FCS). Some pteridine derivatives described the previous examples were tested in the following lymphocyte activation tests:
(§2) Peripheral blood mononuclear cells (hereinafter referred as PBMC) were isolated from heparinized peripheral blood by density gradient centrifugation over Lymphoprep (Nycomed, Maorstua, Norway). Allogeneic PBMC or Eppstein-Barr Virus-transformed human B cells [commercially available under the trade name RPMI1788 (ATCC name CCL156)] which strongly express B7-1 and B7-2 antigens were used as stimulator cells after irradiation with 30 Gy. MLR was performed in triplicate wells. After 5 days incubation at 37° C., 1 μCi [^3H]-thymidine was added to each cup. After a further 16 hours incubation, cells were harvested and counted in a β-counter. Inhibition of proliferation by a compound (drug) described in some of the previous examples was counted using the formula:
(§3) [formula] wherein cpm is the thymidine count per minute. The MLR assay is regarded by those skilled in the art as an in vitro analogue of the transplant rejection since it is based on the recognition of allogeneic major histocompatibility antigens on the stimulator leukocytes, by responding lymphocytes. Assays for CD3 and CD 28
Pteridine derivatives were first dissolved (10 mM) in dimethylsulfoxide (hereinafter referred as DMSO) and further diluted in culture medium before use for the following in vitro experiments. The commercially available culture medium consisted of RPMI-1640+10% foetal calf serum (FCS). Some pteridine derivatives described in the previous examples (as indicated in table 3 below) were tested in the following mixed lymphocyte reaction (MLR) assay.
as §2, with “CCL156)]which” for “CCL156)] which”
as §3, with “lymphocytes.” for “lymphocytes. Assays for CD3 and CD 28”

Peripheral blood T cells = test: In vivo leukocyte activation and immunosuppression whole blood assay (ConA stimulation, FACScan); set-up: species or system mice; details: 30 mg/kg per day i.p.; for TCR+, CD69+ peripheral blood T cells after ConA: 2 hours before ConA, baseline 0.5%; for TCR+, CD69+ peripheral blood T cells after ConA / TCR+, IL-2R+ peripheral blood T cells after ConA: untreated up to 3%; for ConA-stimulated CD71 up-regulation on T cells: baseline 4.8%, untreated 9.3% and 5.5% after 1 and 2 days; for CD134 expression on peripheral blood T cells after ConA: untreated up to 6.6% within 2 days, baseline […]
Description: Inbred mice (e.g. AKR strain), weighting from 20 to 30 g, were stimulated by intraperitoneal injection with mitogens specific for T cells (e.g. Concanavalin A, hereinafter referred as ConA, 500 μg per mouse), B cells or monocytes/macrophages (e.g. LPS 20 μg per mouse). […] Peripheral blood was collected 24, 36, 48, and respectively 72 hours after stimulation for immune fluorescence staining and FACScan analysis.
FACScan analysis proceeded as follows: heparinized whole blood (50 μl) was removed of red blood cells by incubation with a lysing buffer. The remaining leukocytes were double-stained with phycoerythrin-conjugated antibodies specific for T cells (e.g. T cell receptor TCR), B cells (e.g. CD45R/B220 (commercially available from Pharmingen) or monocytes/macrophages (e.g. F4/80) (commer-cially available from Serotec) in combination with FITC-conjugated antibodies against various cell surface markers such as CD69 (early activation molecule), CD25 (IL-2 receptor), CD71 (transferring receptor), B7-1/2 (ligand for the co-stimulatory molecule CD28) and CD11b (complement receptor 3). Cells were examined by flow cytometry using CellQuest software (commercially available from Decton Dickinson).

[2] = tested on: Highly purified T cells stimulated by anti-CD28 mAb; test: CD28 assay: T-cell proliferation stimulated by anti-CD28 mAb + PMA (BrdU); format: cell-based, human; details: Homo sapiens; 50% reduction in T-cell proliferation
Description: as §1
(§4) T cells were purified by removing non-T cells. Briefly, monocytes were removed by cold agglutination. The resulting lymphoid cells were further purified by a cell enrichment immunocolumn [Cellect Human T commercially available from Biotex, Edmonton, Alberta, Canada)] by a process of negative selection. More than 95% of the B cells were removed with this procedure. After depletion, the resulting T cell preparation was highly purified, i.e. these cells could not be activated by phytohaemagglutinin (PHA) or rIL-2 alone at concentrations capable of stimulating RBMC prior to deletion.
(§5) Highly purified T cells (10^6/ml) were stimulated by immobilized anti-CD3 or anti-CD28 monoclonal antibodies (hereinafter referred as mAb) in the presence of phorbol myristate acetate (hereinafter referred as PMA). Anti-CD3 mAb (available from CLB, Amsterdam, Netherlands) were fixed on a 96-microwell plates by incubating the wells with 50 μl of mAb solution (1/800 dilution in culture medium). For anti-CD28 mAb (available from CLB, Amsterdam, Netherlands) 50 μl (1/650 dilution in culture medium) was added directly to the wells. Further, a 20 μl PMA (commercially available from Sigma, St. Louis, Mo., USA) solution (final concentration: 0.5 ng/ml) was added. Subsequently, 20 μl of a pteridine derivative described in the previous examples were added by serial dilution in triplicate wells. Finally 100 μl of the T-cell suspension (10^6/ml) was added. After 48-hour incubation at 37° C. in 5% CO2, 20 μl of a bromo-deuridine (hereinafter referred as BrdU) 100 μM solution (commercially available as Cell Proliferation Elisa from Boehringer-Mannheim Belgium) was added to each well. After a further overnight incubation, T-cell proliferation was measured using a calorimetric immuno-assay for qualification of cell proliferation based on the incorporation of BrdU during DNA synthesis. Optical density (hereinafter referred as OD) was measured by a Behring EL311 plate reader at 450 nm (reference wavelength: 690 nm). Inhibition of proliferation by the pteridine derivative (drug) was counted while using the formula: […]

[3] = tested on: Highly purified T cells stimulated by anti-CD3 mAb; test: CD3 assay: T-cell proliferation stimulated by immobilized anti-CD3 mAb + PMA (BrdU); format: cell-based, human; details: Homo sapiens; 50% reduction in T-cell proliferation; read-out: CD 3 IC50
Description: as §1, §4, §5

B16BL/6 melanoma cells = test: Inhibition of the metastasis of melanoma cells in mice; format: in vivo, C57BL/6 mice; details: 20 mg/kg intraperitoneously, three times a week for two weeks; control group 80%
Description: C57BL/6 mice were injected with 1.5×10^6 B16BL/6 melanoma cells and were divided into 2 groups. Five days after the injection of the tumor cells, the two groups of animals were administered intraperitoneously, three times a week for two subsequent weeks, either (treated group) 20 mg/kg of 2-amino-4-morpholino-6-(3,4-dimethoxyphenyl)pteridine (a compound known from WO 00/39129) or (control group) the vehicle (5% DMSO in phosphate buffered saline). At the end of the experiment, all surviving tumor-bearing mice were sacrificed and examined in order to assess the absence or presence of the black metastases in inguinal and/or para-aortic lymph nodes (macroscopic metastasis). The findings were confirmed by histology, and the experiment done twice.

IL-5 = test: Inhibition of the release of IL-5; format: cell-based; details: at 0.1 μM/l
Description: (§6) 2-amino-4-morpholino-6-(3,4-dimethoxyphenyl)pteridine (a compound known from WO 00/39129) was tested, according to experimental procedures well established in the art, in the inhibition of two cytokines, IL-5 and IL-10, known to be involved in the development of asthma and other forms of severe allergic conditions.

IL-10 = test: Inhibition of the release of IL-10; format: cell-based; details: at 0.1 μM/l
Description: as §6

Row | IC50 [1] | SMILES | TCR+, CD69+ peripheral blood T cells after ConA (Peripheral blood T cells) | ConA-stimulated CD71 up-regulation on T cells (Peripheral blood T cells) | TCR+, IL-2R+ peripheral blood T cells after ConA (Peripheral blood T cells) | CD134 expression on peripheral blood T cells after ConA (Peripheral blood T cells) | IC50 [2] | IC50 [3] | animals with metastases (inguinal and/or para-aortic lymph nodes) (B16BL/6 melanoma cells) | inhibition at 0.1 µM (IL-5) | inhibition at 0.1 µM (IL-10)
1 | 900 nM | CCOc1nc(N)nc2ncc(-c3ccc(OC)c(OC)c3)nc12 [Example 30, 2-amino-6-(3,4-dimethoxyphenyl)-4-ethoxy-pteridine] | 1.6% | baseline levels | 1.5% | 3.5% | 700 nM | 700 nM |  |  | 
2 | 400 nM | COc1ccc(-c2cnc3nc(N)nc(OC(C)C)c3n2)cc1OC [Example 45, 2-amino-6-(3,4-dimethoxyphenyl)-4-isopropoxypteridine] | 2.4% | baseline levels | 1.7% | 4.2% | 1700 nM | 6700 nM |  |  | 
3 |  | COc1ccc(-c2cnc3nc(N)nc(N4CCOCC4)c3n2)cc1OC [2-amino-4-morpholino-6-(3,4-dimethoxyphenyl)pteridine] |  |  |  |  |  |  | 33% | 70% | 39%
